Data set [1] can be described thus: Luminescence quantum yield, emission and brightness in aqueous 0.1 M TRIS buffer. It is filed as physicochemical. The note with it: for øTot: 0.1M TRIS buffer pH = 7.4; for Brightness: at maximum absorption, product of quantum yield and molar absorption coefficient, 0.1 M TRIS pH = 7.4; for overall quantum yield (in words): related to inner-sphere coordinated water. As to the method:
Quantum Yield. Quantum yield will be measured using established methods. Fluorescence quantum yield Q are measured in diluted solution with an optical density lower than 0.1 using the following equation Qx/Qr=[Ar(λr)/Ax(λx)][nx^2/nr^2][Dx/Dr] were A is the absorbance at the excitation wavelength (λ), n the refractive index and D the integrated luminescence intensity. Subscripts “r” and “x” stand for reference and sample, respectively. References will be a quinine bisulfate in 1N sulfuric acid in aqueous solution (Qt=0.546)^1 and Ru(bpy)3 2C1 complexes in water solution (Qr=0.028)^2 for all complexes. A plot of integrated emission intensity (i.e. Dr) versus absorbance (i.e. Ar(λr)) yields a linear plot with a slope which can be equated to the reference quantum yield Qr. By analogy, for the unknown sample, a plot of integrated emission intensity (i.e. Dx) versus absorbance (i.e. Ax(λx)) yields a linear plot and Qx can then be evaluated. A minimum of at least two independent measurements will be averaged to derive a reliable value.

Data set [2] is described as follows: UV/visible absorption spectroscopy of Eu(III) complexes in TRIS buffer. As to conditions: for λ: absorption maximum. Format: physicochemical. The source says: Extinction Coefficient. A series of solutions of varied concentrations will be prepared from the solids based on mass and purity. The absorbance of each of these solutions at both 340 nm and at the appropriate acceptor wavelength will be measured and plotted according to Beer's Law (A=εcL where A is absorbance, ε is the extinction coefficient in M^−1 cm^−1, c is concentration, and L is path length in cm) with the fitted linear regression slope equal to […] on a plot of A as a function of C.
Each of the spectra have absorption maxima around 335-340 nm (FIG. 2). Those bands are composed of two electronic transitions; at higher energy, a purely π-π* transition and, at slightly lower energy (around ca. 320 nm), a π-π* transition with some n-π* character, as evidenced previously from TD-DFT calculations. […] This interaction gives maxima blue-shifting from 341 nm for [Eu(H(2,2)-1,2-HOPO)]^0 to 334 nm for [Eu(H(17O5,2)-1,2-HOPO)]^0 (as low as 332 nm for)[Eu(5LIN^Me-1,2HOPO)2]^0).

The nature of data set [3]: Stability titration (pEu) by competitive batch titration using DTPA. As to conditions: for pEu: competitive batch titration using DTPA in 0.1M TRIS pH = 7.4 and 0.1M KCl; for pEu value as compared to DTPA / thermodynamic stability in aqueous solution: in words; for thermodynamic stability in aqueous solution: pH=7.4. It is filed as physicochemical. As for the experimental part:
Stability Titrations. The general procedure used to determine the pEu values of ligands was adapted from an already described study using Gd and are similar to that already reported for other complexes. Different volumes of a standardized DTPA stock solution were added to solutions of constant ligand, metal, and electrolyte concentrations. Concentrations of complexed ligand in each solution were determined by subtracting the remaining luminescence intensity after addition of DTPA to the initial luminescence intensity at identical pH and those concentrations were used as references for the analysis. Stability of compounds towards mM concentrations of EDTA and divalent cations will be assessed by incubation of the proposed molecules at nM concentration at room temperature in aqueous solutions of test ions. Time Resolved Fluorescent signal will be assessed at the outset of experiment and monitored over a minimum of 24 hours to determine signal change.

The nature of data set [4]: Luminescence lifetimes (TRIS buffer, deuterated water, 77K) and inner sphere water number q. As to conditions: for τ^D / τ (77K): first component; for q / q, second species: inner sphere water molecules; for q: first species.
Description: Fluorescent decay signals can be acquired using an IBH DataStation Hub photon counting module and data analysis performed using the commercially available DAS 6 decay analysis software package from HORIBA Jobin Yvon IBH. Goodness of fit will be assessed by minimizing the reduced chi squared function, χ2, and a visual inspection of the weighted residuals. Each trace will use at least 10,000 points and the reported lifetime values result from at least three independent measurements.
In addition to the steady state emission spectra, the luminescence quantum yields and luminescence lifetimes of the Eu(III) complexes were also measured in aqueous solution with 0.1 M TRIS buffer pH=7.4 and in deuterated solution to estimate the number of inner sphere water molecule (i.e. q) using the improved Horrock's equations.
Luminescence lifetimes were also determined at 77K, in a solid matrix (Table 5), which have allowed us to determine whether back energy transfer between the donor triplet excited state and the acceptor manifold excited state of the lanthanide is present, or alternately whether quenching via low lying LMCT state occurs.
Data set [5] is described as follows: Triplet excited state energy from phosphorescence of Gd complexes at 77K. It is filed as physicochemical. The note with it: solid matrix (methanol/ethanol 1/4), using the Gd complexes. As for the experimental part: Estimation of the energies of the ligand based triplet excited state were determined using the Gd(III) complexes. Gadolinium was chosen because it is a 4f^7 lanthanide cation having a similar 4f electronic configuration and size as the europium cation (4f^6), but lacking an accessible metal based low energy electronic excited state. At room temperature, only a broad weak emission centered between 380-400 nm can be seen for the Gd(III) complexes. […] At 77K, in solid matrix, an emission band at approx. 500 nm can be seen (FIG. 8). This emission, red-shifted compared to the singlet excited state, can be assigned to phosphorescence from the triplet excited state, lower in energy than the singlet excited state observed at room temperature. Selective time gated phosphorescence spectra (delay 0.1 ms) of the gadolinium complexes at 77K are depicted in FIG. 8.

Data set [6] can be described thus: Calculation of Eu luminescence parameters (radiative lifetime, rate constants, efficiencies). Format: physicochemical. As to conditions: for metal centred efficiency: TRIS buffer; for η^Eu: efficiency of metal centred luminescence; for knr: non-radiative rate constant; for τrad: pure radiative luminescence lifetime, aqueous TRIS pH = 7.4; for kr: radiative rate constant; for η^sens: sensitization efficiency. As to the method:
In this equation, the ηISC ηET term is termed the sensitization efficiency, ηsens (ηsens=ηISC ηET). All the luminescence parameters τR (the pure radiative luminescence lifetime), kR and knR (the radiative and non-radiative constant rate) can be deduced. These parameters were calculated for five of the octadentate complexes and the model complex that present only one species in solution at pH=7.4 and are reported in Table 6.

[7] abbreviates: extinction coefficient, in M-1·cm-1.
Setting [8] is: solid matrix at 77K (methanol/ethanol 1/4).
The mark [9] stands for this setting: aqueous TRIS pH = 7.4, complexes with only one species.

Consider four compounds from patent US10352938B2, “Macrocyclic HOPO chelators” (LUMIPHORE, INC., priority 2009, dated 2019).

The structures appear in SMILES notation.

Take `O=C(NCCN(CCNC(=O)c1cccc(=O)n1O)CCOCCN(CCNC(=O)c1cccc(=O)n1O)CCNC(=O)c1cccc(=O)n1O)c1cccc(=O)n1O.[Eu]` [Eu(H5-1)]: in data set [1], the øTot turned out to be 0.067, the Brightness worked out at 1065 M⁻¹ cm⁻¹ and the “overall quantum yield (in words)” value is recorded as “low quantum yields”. Further, the ϕTot in data set [1] (aqueous quantum yield) was found to be 0.067. In data set [2] (TRIS buffer pH = 7.4), the ε is 15,900 M^−1 · cm^−1 and the “λ^maxabs” value is reported as 337 nm. Besides, the λ in data set [2] was 337 nm. The ε in data set [2] (setting [7]) is 15,900. Further, in data set [3], the pEu was determined as 19.2 and the “pEu value as compared to DTPA” value is “increased”. For the same compound, in data set [4] (deuterated solution), the “τ^D” value is listed as 825; μs. Also, in data set [4] (deuterated solution, second component), the “τ^D, second component” value is 462 μs. Further, in data set [4] (deuterated water), the “τ^D” value amounted to 825 μs. Also, the “τ^D, second component” value in data set [4] (deuterated water, second component) is reported as 438 μs. Moreover, the τ in data set [4] (first (longer) component) was found to be 651 μs. In addition, the q in data set [4] (improved Horrock's equations) was 0;. Besides, in data set [4], the q is on record as 0 and the “q, second species” value came to 0.8. Further, in data set [4] (listed as [Eu(H(5O,2)-1,2HOPO)]^0), the “q, second species” value turned out to be 1.1. Moreover, the “τ, second component” value in data set [4] (second (shorter) component) is 304 μs. Besides, the “τ (77K)” value in data set [4] (setting [8]) was 823; μs. The “τ (77K), second component” value in data set [4] (solid matrix at 77K (methanol/ethanol 1/4), second component) worked out at 608 μs. Further, the “T0-0 (triplet excited state energy)” value in data set [5] is given as 22,000 cm^−1.
On to `O=C(NCCN(CCNC(=O)c1cccc(=O)n1O)CCOCCOCCOCCOCCOCCN(CCNC(=O)c1cccc(=O)n1O)CCNC(=O)c1cccc(=O)n1O)c1cccc(=O)n1O.[Eu]` [[Eu(H(17O5,2)-1,2HOPO)]^0], for which, in data set [1], the øTot worked out at 0.196 and the Brightness was 2940 M⁻¹ cm⁻¹. Besides, in data set [1] (listed as [Eu(H(17O5,2)-1,2-HOPO)]^0), the øTot worked out at 0.197. The compound further came in with a ϕTot in data set [1] (setting [9]) of 0.196. Moreover, in data set [2] (TRIS buffer pH = 7.4), the ε is 15,000 M^−1 · cm^−1 and the “λ^maxabs” value is 336 nm. The “λ^maxabs” value in data set [2] (TRIS buffer pH = 7.4, listed as [Eu(H(17O5,2)-1,2-HOPO)]^0) is 334 nm. Besides, the “thermodynamic stability in aqueous solution” value in data set [3] is reported as “high thermodynamic stabilities”. In data set [6], the metal centred efficiency result is listed as “around 50%”, the “η^Eu” value is on record as 0.522, the knr is 679 s⁻¹ and the τrad was 1348 μs. Moreover, in data set [6], the kr is 742 s⁻¹ and the “η^sens” value is given as 0.375. In data set [4] (aqueous TRIS pH = 7.4), this compound displayed a τ of 704 μs. Also, the “τ^D” value in data set [4] (deuterated solution) amounted to 962 μs. Also, the q in data set [4] (improved Horrock's equations) worked out at 0.1. Moreover, the “τ (77K)” value in data set [4] (setting [8]) came to 826 μs. For the same compound, in data set [5], the “T0-0 (triplet excited state energy)” value is given as 21,690 cm^−1.
As for `O=C(NCCN(CCNC(=O)c1cccc(=O)n1O)CCOCCOCCN(CCNC(=O)c1cccc(=O)n1O)CCNC(=O)c1cccc(=O)n1O)c1cccc(=O)n1O` [Eu(H8-2)], in data set [1], the øTot is 0.112, the Brightness was 1720 M⁻¹ cm⁻¹ and the “overall quantum yield (in words)” value is given as “comparatively high quantum yields”. In data set [1] (setting [9]), this compound registered a ϕTot of 0.112. Besides, in data set [1] (aqueous quantum yield), the ϕTot worked out at 0.112. Also, in data set [2] (TRIS buffer pH = 7.4), the ε is 15,350 M^−1 · cm^−1 and the “λ^maxabs” value was determined as 336 nm. Moreover, the λ in data set [2] was found to be 336 nm. Further, in data set [2] (setting [7]), the ε is 15,350. Besides, in data set [3], the pEu amounted to 20.4 and the “pEu value as compared to DTPA” value is “increased”. Moreover, in data set [6], the sensitization process efficiency is reported as 28.4%, the “η^Eu” value is given as 0.395, the knr is 869 s⁻¹ and the τrad is 1770 μs. In addition, in data set [6], the kr was 566 s⁻¹ and the “η^sens” value is on record as 0.284. Besides, in data set [4] (aqueous TRIS pH = 7.4), the τ was found to be 697 μs. Besides, the “τ^D” value in data set [4] (deuterated solution) is 913 μs. Further, in data set [4] (deuterated water), the “τ^D” value is 913 μs. In data set [4] (first (longer) component), the τ is 697 μs. This compound yielded a q in data set [4] (improved Horrock's equations) of 0. Moreover, in data set [4] (setting [8]), the “τ (77K)” value turned out to be 748 μs. Also, the “T0-0 (triplet excited state energy)” value in data set [5] is given as 22,320 cm^−1.
`O=C(NCCN(CCNC(=O)c1cccc(=O)n1O)CCOCCOCCOCCOCCN(CCNC(=O)c1cccc(=O)n1O)CCNC(=O)c1cccc(=O)n1O)c1cccc(=O)n1O.[Eu]` [[Eu(H(14O4,2)-1,2HOPO)]^0]: in data set [1], the øTot stood at 0.192 and the Brightness came to 2920 M⁻¹ cm⁻¹. In data set [1] (setting [9]), the ϕTot was determined as 0.192. Further, in data set [2] (TRIS buffer pH = 7.4), the ε is listed as 15,200 M^−1 · cm^−1 and the “λ^maxabs” value was 336 nm. For the same compound, the “thermodynamic stability in aqueous solution” value in data set [3] is “high thermodynamic stabilities”. Besides, in data set [6], the metal centred efficiency entry is “around 50%”, the “η^Eu” value is reported as 0.528, the knr is 674 s⁻¹ and the τrad is 1326 μs. Moreover, in data set [6], the kr was 754 s⁻¹ and the “η^sens” value is reported as 0.364. Moreover, the τ in data set [4] (aqueous TRIS pH = 7.4) was found to be 700 μs. Also, in data set [4] (deuterated solution), the “τ^D” value was determined as 961 μs. Also, in data set [4] (improved Horrock's equations), the q was 0.1. Also, the “τ (77K)” value in data set [4] (setting [8]) is listed as 819 μs. Moreover, in data set [5], the “T0-0 (triplet excited state energy)” value is 22,020 cm^−1.
